Laboratory results from patent EP0067641A2, “Amino acids” (BEECHAM GROUP PLC, priority 1981, dated 1982).
Marks after values point to notes of the source that are not given here.

Tested on: rats made hyperlipidaemic by diet
Assay: Effects on serum lipids in vivo in rats made hyperlipidaemic by diet
Set-up: species or system Male Sprague-Dawley rats
Settings: compound fed at 0.1% of the powdered diet (approximately 100 mg/kg/day), 7 days, (-) lower, (+) higher than control; for Percentage difference from Control Values in High Density lipoprotein (HDL) cholesterol: HDL fraction by heparin-manganous chloride precipitation, four pooled samples per group; for Percentage difference from Control Values in Total Serum Cholesterol / Percentage difference from Control Values in Total Serum Triglyceride: semi-synthetic diet rich in sucrose and cholesterol
Experimental: The compounds of the Examples above were tested for their effects on serum lipids in vivo using rats made hyperlipidaemic by diet*.
Male Sprague-Dawley rats, 80-100 g , were randomised into groups of 8 after 5 - 7 days of feeding on the diet. The compounds were fed to the rats at a concentration of * 0.1% of the powdered diet (ie approximately 100 mg/kg/ day), unless otherwise stated. The control groups were fed only the diet. At the end of the experiment, ie after 7 days, the rats were killed and their individual total serum cholesterol and triglyceride measured in mg/100 ml using a Technicon Autoanalyser. The high density lipoprotein (HDL)-cholesterol fraction, which was obtained from the serum by precipitation with heparin- manganous chloride, was measured on four 'pooled' samples from each group.
^* A semi-synthetic diet rich in sucrose and cholesterol.

Row | Compound | Percentage difference from Control Values in High Density lipoprotein (HDL) cholesterol | Percentage difference from Control Values in Total Serum Cholesterol | Percentage difference from Control Values in Total Serum Triglyceride
1 | O=C(O)[C@H](Cc1ccccc1)NCc1ccc2ccccc2c1 [Example 5, N-(2-Naphthyl)methyl-L-phenylalanine] | +30* % | +17* % | -57* %
2 | O=C(O)C(Cc1ccc(Cl)cc1)NCc1ccc(Cl)s1 (racemic) [Example 1, N-[2-(5-chloro)thienyl]methyl-DL-(4-chlorophenyl) alanine] | +31* % | +16% | -42* %
3 | O=C(O)[C@H](Cc1ccccc1)NCc1cccc2ccccc12 [Example 3, N-(1-Naphthyl)methyl-L-phenylalanine] | +41* % | +62* % | -63* %
4 | O=C(O)C(Cc1ccc(Cl)cc1)NCc1ccccn1 (racemic) [Example 4, N-(2-pyridyl)methyl-DL-(4-chlorophenyl) alanine] | +44* % | +78* % | -30* %
5 | O=C(O)[C@H](Cc1ccccc1)NCc1ccco1 [Example 6, N-(2-Furyl)methyl-L-phenylalanine] | +26* % | – | +39%
6 | O=C(O)C(Cc1ccc(Cl)cc1)NCc1ccco1 (racemic) [Example 2, N-(2-Furyl)methyl-DL-(4-chlorophenyl)-alanine] | +84* % | +61* % | -47* %
